Results taken from patent US20260168983A1, “YaxAB NANOPORE, NANOPORE SYSTEM COMPRISING SAME AND APPLICATIONS THEREOF” (KOREA RESEARCH INSTITUTE OF BIOSCIENCE AND BIOTECHNOLOGY, priority 2022, published 2026).
Entries after “also recorded” stand apart in the source; their conditions may differ.

Experiments:
Bcl-xL protein = Bcl-xL protein (Homo sapiens, UniProt Q07817)
BRD4-BD1 protein = BRD4-BD1 protein (Homo sapiens, UniProt O60885); conditions: 1 M LiCl, pH 7.5

Bcl-xL protein, sequence (Q07817 with tags, fused parts or gaps DEL45-84): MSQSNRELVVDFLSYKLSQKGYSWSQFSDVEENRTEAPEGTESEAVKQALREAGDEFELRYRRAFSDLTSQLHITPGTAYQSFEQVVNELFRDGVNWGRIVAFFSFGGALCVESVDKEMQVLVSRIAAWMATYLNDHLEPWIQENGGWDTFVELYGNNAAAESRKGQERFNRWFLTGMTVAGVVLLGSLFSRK

## CN(C)CC[C@H](CSc1ccccc1)Nc1ccc(S(=O)(=O)NC(=O)c2ccc(N3CCN(Cc4ccccc4-c4ccc(Cl)cc4)CC3)cc2)cc1[N+](=O)[O-] [ABT-737]
Bcl-xL protein; FIG. 17A
  current noise (IN) signal of Bcl-xL on individual treatment: specifically increased
Bcl-xL protein; ligand added individually to Bcl-xL in cis compartment
  change in pattern of ionic current / current blockade of Bcl-xL on addition of ligand: change in pattern; also recorded: the pattern of ionic current changed significantly

## CCOc1cc(N2CCC(O)CC2)ccc1Nc1ncc2c(n1)N(C)c1ccccc1C(=O)N2C [XMD8-92]
BRD4-BD1 protein
  nanopore current blockade signal of BRD4-BD1 with ligand: characteristic nanopore current blockade patterns were observed
